Results taken from patent US20210315970A1, “Hepatitis A Virus Replication Inhibitor Targeting mTOR” (Tokyo Metropolitan Institute of Medical Science, priority 2020, published 2021).

Assays:
subgenomic HAV RNA = test: Subgenomic HAV RNA replicon replication in transfected Huh-7.5 cells; format: cell-based, hepatitis A virus
Description: FIG. 4i Inhibition of subgenomic HAV/NLuc RNA replication in the transfected Huh-7.5 cells by three different mTOR inhibitors and DAA (30 μM 2′CMA). **P<0.01 vs. DMSO control group (one-way analysis of variance with Dunnett's multiple comparison test).
In vitro transcription of HAV or HCV RNA was performed with T7 RiboMAX Express Large Scale RNA production system (Promega) according to the manufacturer's protocol. Transfection of viral RNA was carried out in Gene Pulser Xcell Total System (Bio-Rad Laboratories) as previously described^33, or with TransIT-mRNAtransfection kit (Mirus) for HAV-Luc RNA as previously described^32.
(§1) GLuc analysis of HCV replication and dual luciferase assay for analyzing the transcriptional induction were carried out according to the previously described methods^31,32. NanoLuc activity was determined with Nano-Glo Luciferase Assay System (Promega) according to the manufacture's protocol. For virus replication assays, the medium was replaced with a drug-containing medium at 1 hour post inoculation.

[1] = system: HAV expressing NanoLuc reporter (18f strain, HAV/NLuc); test: HAV/NLuc reporter virus replication in HuH-7 cells (NanoLuc activity); format: cell-based, hepatitis A virus; details: for virus replication compared to rapalogs that target mTOR alone: HAV, dual mTOR/PI3K inhibitors; for virus replication level reduced to (NanoLuc activity): highest dose (10 μM); for viral replication level reduced to (NanoLuc activity): HuH-7 cells infected with HAV/NLuc, drug given 1 hour after infection, 48 hours post-infection
Description: (§2) HuH-7 cells were infected with HAV/NLuc and drugs were given 1 hour after infection. 48 hours later, NanoLuc activities were measured to evaluate the virus replication levels. In addition, WST-8 reagent (Cell Counting Kit-8, Dojindo) was used to evaluate cell viability after the drug treatment.
pHM175/18f-NLuc plasmid was prepared by PCR amplification of the NLuc open reading frame using pNL1.1 plasmid (Promega) as a template and primers containing a triglycine sequence flanked by XbaI and BamHI restriction enzyme sites. This PCR product was digested with these enzymes and ligated into similarly digested pSK-2A-Zeo-2B plasmid^36 to give pSK-2A-NLuc-2B plasmid. This plasmid was further digested with SacI/PflMI to cleave out the entire 2A-NLuc-2B fragment, which was ligated into similarly digested HM175/18f parental plasmid^37 to give pHM175/18f-NLuc reporter virus.
as §1

[2] = phase II trial; cited from earlier work
HAV [3] = test: HAV-infected mouse model, viral RNA shed in feces (real-time PCR); format: in vivo; details: Ifnar1-/- C57BL/6 mice, 15 mg/kg orally from Day 5 after infection, daily for 14 days except Day 9 and Day 16
Description: Type-I interferon receptor (Ifnar1)-knockout C57BL/6 mice were infected by tail vein injection of the virus equivalent to 1.7×10^9 genome copy number. Pictilisib (15 mg/kg) was administered 5 days after infection and viral RNA contained in the later shed feces was quantified by real-time PCR to analyze the antiviral action of the drug (Reference 3).
The drug was orally administered from Day 5 following the infection and continuously administered daily for 14-consecutive days except Day 9 and Day 16. The viral RNA levels shed in the feces reflect the viral load in the liver and thus the viral RNA levels in the feces were quantified. As a result, the viral RNA level was reduced to about one-tenth by administration of the drug, confirming its antiviral effect (FIG. 6).
Virus: HAV-HM175 strain, 1.7×10^9 GE, iv route
Vehicle: 0.5% methyl cellulose/0.2% Tween 80
Mice: Ifnar1^−/− C57BL/6, 5 animals/group
The drug was orally administered from Day 5 following the infection for 14 consecutive days except Day 9 and Day 16. Viral level in the feces was quantified with time because it can serve as an indicator that reflects the viral level in the liver.

HuH-7 cells = test: Cell viability after drug treatment (WST-8, Cell Counting Kit-8); format: cell-based, human; details: at concentrations that suppress virus replication
Description: as §2
MicroRNA-122 mimics were synthesized by Dharmacon and transfected as miRNA/miRNA* duplex by electroporation as previously described^33. Puromycin, Blasticidin and Ruxolitinib were purchased from InvivoGen. Pyridone 6 was obtained from EMD Millipore. Recombinant human IFN-λ1 and IFN-α and actinomycin D were purchased from Sigma-Aldrich. Recombinant human IFN-γ was obtained from PeproTech. PSI-7977 (sofosbuvir) was obtained from ChemScene and 2′-C-methyl adenosine (2′ CMA) was obtained from Santa Cruz Biotechnology. Cell viabilities were determined using Cell Counting Kit-8 (Dojindo) on 96-well plates according to the manufacturer's protocol.

HAV [4] = test: HAV replication in Huh-7.5 cells; format: cell-based, hepatitis A virus; details: IRF1-dependent
Description: (§3) High-titer HAV (HM175/18f strain) was mycoplasma-free and was prepared as previously described^34. HAV infection was performed at a multiplicity of infection (MOI) of 10. SeV (Cantell strain) was obtained from Charles River Laboratories, and was inoculated at 50 U ml^−1 unless otherwise indicated. Infection with HCV-carrying Gaussia luciferase (GLuc) reporter was performed as previously described^32. DENV serotype 2 (olSa-054 strain) and ZIKV (MR-766 and AB-59 strains) were propagated in Vero, C6/36 or Huh-7.5 cells and inoculated at MOI=1 as previously described^35.
Total RNA extraction was performed using RNeasy Mini Kit (QIAGEN), QIAamp viral RNA Mini Kit (QIAGEN) or TRIzol (Thermo Fisher). HAV genomic RNA was detected by a two-step RT-qPCR analysis using SuperScript III First-Strand Synthesis System (Thermo Fisher Scientific) and iTaq Universal SYBR Green Supermix (Bio-Rad Laboratories), or Thunderbird SYBR qPCR Mix (TOYOBO). 5′-GGTAGGCTACGGGTGAAAC-3′ (SEQ ID NO:3) and 5′-[…]-3′ (SEQ ID NO:4) were used as HAV-specific primers

HCV = HCV replication in Huh-7.5 cells; format: cell-based, hepatitis C virus; details: RARRES3 overexpression
Description: as §3, §1

DENV = DENV replication in Huh-7.5 cells; format: cell-based, dengue virus; details: RARRES3 overexpression
Description: as §3
Plasmids encoding capsid and subgenomic RNA containing NS1-5 regions fused with a NanoLuc reporter flanked by 5′ and 3′ untranslated RNAs derived from DENV1 (D1/Hu/Saitama/NIID100/2014 strain) and DENV2-derived premembrane and envelope protein (olSa-054 strain) were transfected into HEK293T cells. Infectious virons secreted in the supernatant were harvested according to the previously described method^38.
Primer pair targeting DENV genomic RNA, 5′-[…]-3′ (SEQ ID NO:57) and 5′-CATCATTAAGTCGAGGGCC-3′ (SEQ ID NO:58), or primer pair targeting ZIKV genomic RNA, 5′-[…]-3′ (SEQ ID NO:59) and 5′[…]-3′ (SEQ ID NO:60) was used with RNA-direct SYBR Green Realtime PCR Master Mix (TOYOBO) to quantify DENV and ZIKV RNA abundance.

HAV [5] = test: HAV replication in cells overexpressing RARRES3 or C113S mutant (lentiviral vectors); format: cell-based, hepatitis A virus; details: cells overexpressing the protein
[6] = system: human rhinovirus 14 (HRV-14); test: HRV-14 replication with RARRES3 overexpression; format: cell-based

C[C@@]1(O)[C@H](O)[C@@H](CO)O[C@H]1n1cnc2c(N)ncnc21 [2′CMA, 2′-C-methyl adenosine]
subgenomic HAV/NLuc RNA replication (subgenomic HAV RNA; transfected Huh-7.5 cells, 2′CMA 30 μM): Inhibition

Oc1cccc(-c2nc(N3CCOCC3)c3oc4ncccc4c3n2)c1 [PI-103]
virus replication compared to rapalogs that target mTOR alone [1]: one-tenth
virus replication level reduced to (NanoLuc activity) ([1]; HAV/NLuc-infected cells): about one-thousandth

CS(=O)(=O)N1CCN(Cc2cc3nc(-c4cccc5[nH]ncc45)nc(N4CCOCC4)c3s2)CC1 [Pictilisib]
safety to human [2]: confirmed to be safe to human
viral RNA level in the feces reduced to (HAV [3]): about one-tenth
virus replication compared to rapalogs that target mTOR alone [1]: one-tenth
virus replication level reduced to (NanoLuc activity) ([1]; HAV/NLuc-infected cells): about one-thousandth

CCC(=O)N1CCN(c2ccc(-n3c(=O)ccc4cnc5ccc(-c6cnc7ccccc7c6)cc5c43)cc2C(F)(F)F)CC1 [Torin-1, 1-[4-[4-(1-oxopropyl)-1-piperazinyl]-3-(trifluoromethyl)phenyl]-9-(3-quinolinyl)-benzo[h]-1,6-naphthyridin-2(1H)-one]
cell viability (HuH-7 cells): without having an influence on the cell viability
HAV replication (effect in words) ([1]; HAV/NLuc-infected cells): suppressed strongly
viral replication level reduced to (NanoLuc activity) [1]: one-hundredth

CO[C@H]1C[C@@H]2CC[C@@H](C)[C@@](O)(O2)C(=O)C(=O)N2CCCC[C@H]2C(=O)O[C@H]([C@H](C)C[C@@H]2CC[C@@H](OCCO)[C@H](OC)C2)CC(=O)[C@H](C)/C=C(\C)[C@@H](O)[C@@H](OC)C(=O)[C@H](C)C[C@H](C)/C=C/C=C/C=C/1C [everolimus]
cell viability (HuH-7 cells): without having an influence on the cell viability
viral replication level reduced to (NanoLuc activity) [1]: one-twentieth

CO[C@H]1C[C@@H]2CC[C@@H](C)[C@@](O)(O2)C(=O)C(=O)N2CCCC[C@H]2C(=O)O[C@H]([C@H](C)C[C@@H]2CC[C@@H](O)[C@H](OC)C2)CC(=O)[C@H](C)/C=C(\C)[C@@H](O)[C@@H](OC)C(=O)[C@H](C)C[C@H](C)/C=C/C=C/C=C/1C [rapamycin]
cell viability (HuH-7 cells): without having an influence on the cell viability

CO[C@H]1C[C@@H]2CC[C@@H](C)[C@@](O)(O2)C(=O)C(=O)N2CCCC[C@H]2C(=O)O[C@H]([C@H](C)C[C@@H]2CC[C@@H](OC(=O)C(C)(CO)CO)[C@H](OC)C2)CC(=O)[C@H](C)/C=C(\C)[C@@H](O)[C@@H](OC)C(=O)[C@H](C)C[C@H](C)/C=C/C=C/C=C/1C [temsirolimus]
cell viability (HuH-7 cells): without having an influence on the cell viability
viral replication level reduced to (NanoLuc activity) [1]: one-twentieth

B1: IFN-γ: Recombinant human IFN-γ obtained from PeproTech (protein, UniProt P01579 24-161, looked up)
Interferon gamma: QDPYVKEAENLKKYFNAGHSDVADNGTLFLGILKNWKEESDRKIMQSQIVSFYFKLFKNFKDDQSIQKSVETIKEDMNVKFFNSNKKKRDDFEKLTNYSVTDLNVQRKAIHELIQVMAELSPAAKTGKRKRSQMLFRG
HAV replication (HAV [4]): restricted HAV replication

B2: RARRES3: retinoic acid receptor responder protein 3, SEQ ID NO:2, phospholipase A / acyltransferase activity (protein, listed as Homo sapiens)
chain: MASPHQEPKPGDLIEIFRLGYEHWALYIGDGYVIHLAPPSEYPGAGSSSVFSVLSNSAEVKRERLEDVVGGCCYRVNNSLDHEYQPRPVEVIISSAKEMVGQKMKYSIVSRNCEHFVTQLRYGKSRCKQVEKAKVEVGVATALGILVVAGCSFAIRRYQKKATA
HCV replication (HCV): did not restrict
replication of subgenomic RNA replicon (subgenomic HAV RNA; Huh-7.5 cells expressing RARRES3): suppressed
DENV replication (DENV): did not restrict
HAV replication (HAV [5]): strongly suppressed
HRV-14 replication [6]: did not restrict
